# Experimental data from US20130095151A1, “BROAD SPECTRUM SUNSCREEN COMPOSITION COMPRISING 2 HYDROXY SULFOBETAINE OF CINNAMIDOALKYL AMINE” (GALAXY SURFACTANTS LTD., priority 2010, published 2013).
# Columns and labels:
# [1] = free acid, not neutralised; cited from earlier work
# [2] = photostability: remaining content of AVB after exposing the formulas to sunlight, UV spectrophotometer vs unexposed control; type: physicochemical; details: in sunscreen creams with AVB/OCN
# Method: Furthermore, the formulas I to 4 above where tested for photostability by exposing the formulas to sunlight for three hours (10 am to 1 pm, 2 Jun. 2011, Navi Mumbai, INDIA). The remaining content of AVB was measured using UV Spectrophotometer and compared to unexposed control.
photostability compared to PBSA and OMC [2],SMILES,solubility in water [1]
–,O=S(=O)(O)c1ccc2[nH]c(-c3ccccc3)nc2c1 [Phenylbenzimidazole Sulfonic Acid],0.25 % w/w
enhanced photostability,"COc1ccc(/C=C/C(=O)NCCC[N+](C)(C)CC(O)CS(=O)(=O)[O-])cc1 (centres unmarked) [SunBeat, 3-(N-p-Methoxycinnamidopropyl, N,N-Dimethyl Ammonium)-2-Hydroxypropane-1-Sulphonate]",–
